According to the supplement of paper PMC10331698:
± gives the standard deviation of the averaged measurements.

Key:
Assay in all cases: level (log10 ratio to DMSO vehicle control); higher = higher biomarker level / cell amount than vehicle control
Conditions in all cases: in DMSO
[1] = compound: O=S(=O)(O)C(F)(F)C(F)(F)C(F)(F)C(F)(F)C(F)(F)C(F)(F)C(F)(F)C(F)(F)F [Perfluorooctanesulfonic acid]
Method: (§1)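 BioMAP Diversity Plus panel of 12 human primary cell co-culture systems (3C, 4H, LPS, SAg, BT, BF4T, BE3C, CASM3C, HDF3CGF, KF3CT, MyoF, Mphg). Compounds were added 1 h before stimulation and left for 24 h (MyoF 48 h; BT 72 h for soluble read-outs or 6 d for IgG). Biomarkers were read by ELISA, cytotoxicity by SRB, PBMC viability and proliferation by Alamar Blue. Each well value was divided by the mean of 8 DMSO control wells on the same plate and log10 transformed; duplicate blinded samples were tested at 4 concentrations.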

Hexafluoroglutaric acid = compound: O=C(O)C(F)(F)C(F)(F)C(F)(F)C(=O)O [Hexafluoroglutaric acid]
Method: as §1

[2] = compound: O=C(O)C(F)(F)C(F)(F)C(F)(F)C(F)(F)C(F)(F)C(F)(F)C(F)(F)C(F)(F)C(F)(F)C(F)(F)C(F)(F)C(F)(F)F [Perfluorotridecanoic acid]
Method: as §1

[3] = compound: O=C(O)C(F)(F)OC(F)(F)C(F)(F)OC(F)(F)C(F)(F)C(F)(F)C(F)(F)F [Perfluoro-3,6-dioxadecanoic acid]
Method: as §1

Azathioprine = compound: Cn1cnc([N+](=O)[O-])c1Sc1ncnc2[nH]cnc12 [Azathioprine]
Method: as §1

[4] = compound: CNS(=O)(=O)C(F)(F)C(F)(F)C(F)(F)C(F)(F)C(F)(F)C(F)(F)C(F)(F)C(F)(F)F [N-Methylperfluorooctanesulfonamide]
Method: as §1

Row | Test System | level (log10) ([1]; 6700 nM) | level (log10) ([1]; 20000 nM) | level (log10) ([1]; 60000 nM) | level (log10) (Hexafluoroglutaric acid; 6700 nM) | level (log10) (Hexafluoroglutaric acid; 20000 nM) | level (log10) (Hexafluoroglutaric acid; 60000 nM) | level (log10) ([2]; 1500 nM) | level (log10) ([2]; 4400 nM) | level (log10) ([2]; 13000 nM) | level (log10) ([2]; 40000 nM) | level (log10) ([3]; 6700 nM) | level (log10) ([3]; 20000 nM) | level (log10) ([3]; 60000 nM) | level (log10) (Azathioprine; 1400 nM) | level (log10) (Azathioprine; 4200 nM) | level (log10) (Azathioprine; 13000 nM) | level (log10) (Azathioprine; 38000 nM) | level (log10) ([4]; 6700 nM) | level (log10) ([4]; 20000 nM) | level (log10) ([4]; 60000 nM)
1 | MyoF:CD106/VCAM-1 | 0.0055 ± 0.0021 | 0.0085 ± 0.016 | 0.0165 ± 0.023 | -0.0145 ± 0.021 | -0.023 ± 0.0099 | -0.006 ± 0.0014 | -0.0105 ± 0.0078 | 0.01 ± 0.0071 | -0.003 ± 0.0085 | 0.0035 ± 0.033 | -0.0055 ± 0.00071 | -0.0285 ± 0.026 | -0.045 ± 0.021 | -0.01 ± 0.0099 | 0.008 | -0.0165 ± 0.005 | -0.022 ± 0.014 | 0.0065 ± 0.0078 | -0.0035 ± 0.016 | -0.0155 ± 0.012
2 | MyoF:CXCL8/IL-8 | -0.057 ± 0.0028 | -0.0755 ± 0.013 | -0.025 ± 0.017 | -0.0085 ± 0.0021 | -0.0225 ± 0.013 | -0.0015 ± 0.021 | -0.01 ± 0.023 | -0.0295 ± 0.0078 | -0.0275 ± 0.0021 | -0.025 ± 0.0042 | 0.011 ± 0.011 | 0.0335 ± 0.013 | 0.0145 ± 0.0021 | 0.009 ± 0.014 | 0.023 ± 0.017 | 0.027 ± 0.02 | 0.0395 ± 0.015 | -0.0645 ± 0.056 | -0.0895 ± 0.049 | -0.163 ± 0.037
3 | MyoF:Collagen I | -0.012 ± 0.018 | -0.0045 ± 0.0092 | 0.015 ± 0.021 | -0.003 ± 0.013 | -0.0005 ± 0.016 | 0.011 ± 0.0014 | -0.0045 ± 0.019 | -0.0115 ± 0.016 | -0.016 ± 0.025 | -0.213 ± 0.037 | -0.026 ± 0.025 | -0.0525 ± 0.0021 | -0.19 ± 0.011 | -0.0085 ± 0.015 | -0.0095 ± 0.013 | -0.024 | 0.011 ± 0.0028 | -0.019 ± 0.0071 | -0.0015 ± 0.023 | 0.0265 ± 0.026
4 | MyoF:Collagen III | -0.0265 ± 0.026 | -0.025 ± 0.0071 | -0.0385 ± 0.012 | 0.006 ± 0.0042 | 0.0035 ± 0.005 | 0.0055 ± 0.00071 | -0.015 ± 0.025 | -0.0115 ± 0.012 | -0.026 ± 0.02 | -0.044 ± 0.0071 | -0.024 ± 0.0057 | -0.0445 ± 0.0035 | -0.317 ± 0.014 | -0.019 ± 0.021 | -0.0135 ± 0.016 | -0.0275 ± 0.0064 | -0.0115 ± 0.0092 | -0.0185 ± 0.016 | -0.007 ± 0.018 | -0.0175 ± 0.005
5 | MyoF:Collagen IV | 0.0045 ± 0.039 | -0.0005 ± 0.005 | 0.037 ± 0.034 | -0.004 ± 0.013 | 0.002 ± 0.021 | -0.0055 ± 0.0064 | -0.0095 ± 0.043 | 0.002 ± 0.018 | 0.004 ± 0.04 | 0.064 ± 0.013 | 0.0055 ± 0.013 | 0.0345 ± 0.019 | 0.235 ± 0.011 | 0.008 ± 0.0042 | 0.0065 ± 0.0092 | -0.013 ± 0.013 | 0.02 ± 0.016 | 0.228 ± 0.022 | 0.247 ± 0.024 | 0.273 ± 0.028
6 | MyoF:Decorin | 0.018 ± 0.0071 | 0.0365 ± 0.013 | 0.054 ± 0.018 | -0.0145 ± 0.0078 | -0.0225 ± 0.0064 | -0.031 ± 0.0099 | 0.046 ± 0.05 | 0.06 ± 0.035 | 0.047 ± 0.047 | 0.0365 ± 0.039 | 0.0005 ± 0.0021 | 0.023 ± 0.014 | -0.021 ± 0.027 | -0.007 ± 0.024 | -0.009 ± 0.023 | -0.0165 ± 0.015 | -0.013 ± 0.018 | 0.0105 ± 0.012 | 0.005 ± 0.0085 | -0.016 ± 0.0085
7 | MyoF:MMP-1 | -0.031 ± 0.0014 | -0.031 ± 0.013 | 0.038 ± 0.048 | 0 ± 0.0085 | -0.0115 ± 0.012 | -0.008 ± 0.014 | -0.0005 ± 0.021 | 0.018 ± 0.016 | -0.025 ± 0.0099 | 0.014 ± 0.02 | -0.003 ± 0.0085 | -0.03 ± 0.024 | 0.0505 ± 0.0064 | 0.0065 ± 0.047 | 0.0165 ± 0.019 | -0.0215 ± 0.021 | 0.0315 ± 0.0021 | -0.036 ± 0.013 | -0.0325 ± 0.018 | 0.008 ± 0.02
